Experimental data taken from paper PMC12121777 (PLOS One, 2025).
In brackets after ≈: the same amount, converted by molar mass. Where two headings read alike, the source gives them in different places.

Key:
Assay in all cases: microbe, parasite or virus in culture
Assay type in all cases: cell-based
Mtb Praha 4 = details: Mycobacterium tuberculosis, read-out: MIC Mtb Praha 4
Mtb Praha 1 = details: Mycobacterium tuberculosis, read-out: MIC Mtb Praha 1
Mtb 234/2005 = details: Mycobacterium tuberculosis, read-out: MIC Mtb 234/2005
Mtb Praha 131 = details: Mycobacterium tuberculosis, read-out: MIC Mtb Praha 131
Mtb 8666/2010 = details: Mycobacterium tuberculosis, read-out: MIC Mtb 8666/2010
Mtb 7357/1998 = details: Mycobacterium tuberculosis, read-out: MIC Mtb 7357/1998
Mtb 9449/2007 = details: Mycobacterium tuberculosis, read-out: MIC Mtb 9449/2007

| SMILES | MIC (Mtb Praha 4; PRAHA4, 336 h) [µM] | MIC (Mtb Praha 4; PRAHA4, 504 h) [µM] | MIC (Mtb Praha 1; PRAHA1, 336 h) [µM] | MIC (Mtb Praha 1; PRAHA1, 504 h) [µM] | MIC (Mtb 234/2005; 234/2005, 336 h) [µM] | MIC (Mtb 234/2005; 234/2005, 504 h) [µM] | MIC (Mtb Praha 131; PRAHA131, 336 h) [µM] | MIC (Mtb Praha 131; PRAHA131, 504 h) [µM] | MIC (Mtb 8666/2010; 8666/2010, 336 h) [µM] | MIC (Mtb 8666/2010; 8666/2010, 504 h) [µM] | MIC (Mtb 7357/1998; 7357/1998, 336 h) [µM] | MIC (Mtb 7357/1998; 7357/1998, 504 h) [µM] | MIC (Mtb 9449/2007; 9449/2007, 336 h) [µM] | MIC (Mtb 9449/2007; 9449/2007, 504 h) [µM] |
| --- | --- | --- | --- | --- | --- | --- | --- | --- | --- | --- | --- | --- | --- | --- |
| CCCCCCCCCCCCNC(=S)NNC(=O)c1cc([N+](=O)[O-])cc([N+](=O)[O-])c1 [Compound 4s, 2-(3,5-Dinitrobenzoyl)-N-dodecylhydrazine-1-carbothioamide] | 2 (≈ 0.907 µg/mL) | 2 (≈ 0.907 µg/mL) | 2 (≈ 0.907 µg/mL) | 2 (≈ 0.907 µg/mL) | 2 (≈ 0.907 µg/mL) | 4 (≈ 1.81 µg/mL) | 2 (≈ 0.907 µg/mL) | 4 (≈ 1.81 µg/mL) | 1 (≈ 0.454 µg/mL) | 2 (≈ 0.907 µg/mL) | 1 (≈ 0.454 µg/mL) | 2 (≈ 0.907 µg/mL) | 2 (≈ 0.907 µg/mL) | 2 (≈ 0.907 µg/mL) |
| CCCCCCCCCNC(=O)NNC(=O)c1cc([N+](=O)[O-])cc([N+](=O)[O-])c1 [Compound 4i, 2-(3,5-Dinitrobenzoyl)-N-nonylhydrazine-1-carboxamide] | 1 (≈ 0.395 µg/mL) | 1 (≈ 0.395 µg/mL) | 1 (≈ 0.395 µg/mL) | 2 (≈ 0.791 µg/mL) | 1 (≈ 0.395 µg/mL) | 2 (≈ 0.791 µg/mL) | 1 (≈ 0.395 µg/mL) | 2 (≈ 0.791 µg/mL) | 1 (≈ 0.395 µg/mL) | 1 (≈ 0.395 µg/mL) | 1 (≈ 0.395 µg/mL) | 1 (≈ 0.395 µg/mL) | 1 (≈ 0.395 µg/mL) | 1 (≈ 0.395 µg/mL) |
| CCCCNc1nnc(-c2cc([N+](=O)[O-])cc([N+](=O)[O-])c2)o1 [Compound 5d, N-Butyl-5-(3,5-dinitrophenyl)-1,3,4-oxadiazol-2-amine] | 0.5 (≈ 0.154 µg/mL) | 1 (≈ 0.307 µg/mL) | 1 (≈ 0.307 µg/mL) | 1 (≈ 0.307 µg/mL) | 0.5 (≈ 0.154 µg/mL) | 1 (≈ 0.307 µg/mL) | 0.5 (≈ 0.154 µg/mL) | 1 (≈ 0.307 µg/mL) | 0.5 (≈ 0.154 µg/mL) | 0.5 (≈ 0.154 µg/mL) | 0.5 (≈ 0.154 µg/mL) | 1 (≈ 0.307 µg/mL) | 0.5 (≈ 0.154 µg/mL) | 0.5 (≈ 0.154 µg/mL) |
| COc1ccc(CNc2nnc(-c3cc([N+](=O)[O-])cc([N+](=O)[O-])c3)s2)cc1 [Compound 8b, 5-(3,5-Dinitrophenyl)-N-(4-methoxybenzyl)-1,3,4-thiadiazol-2-amine] | ≤ 0.03 | ≤ 0.03 | ≤ 0.03 | ≤ 0.03 | ≤ 0.03 | ≤ 0.03 | ≤ 0.03 | ≤ 0.03 | ≤ 0.03 | ≤ 0.03 | ≤ 0.03 | ≤ 0.03 | ≤ 0.03 | ≤ 0.03 |
| CCCCCCCCCCCCNc1nnc(-c2cc([N+](=O)[O-])cc([N+](=O)[O-])c2)o1 [Compound 5l, 5-(3,5-Dinitrophenyl)-N-dodecyl-1,3,4-oxadiazol-2-amine] | 0.25 (≈ 0.105 µg/mL) | 0.5 (≈ 0.21 µg/mL) | 0.25 (≈ 0.105 µg/mL) | 0.5 (≈ 0.21 µg/mL) | 0.25 (≈ 0.105 µg/mL) | 0.5 (≈ 0.21 µg/mL) | 0.25 (≈ 0.105 µg/mL) | 0.5 (≈ 0.21 µg/mL) | 0.25 (≈ 0.105 µg/mL) | 0.5 (≈ 0.21 µg/mL) | 0.5 (≈ 0.21 µg/mL) | 0.5 (≈ 0.21 µg/mL) | 0.25 (≈ 0.105 µg/mL) | 0.5 (≈ 0.21 µg/mL) |
| CCCCCCCCCCNc1nnc(-c2cc([N+](=O)[O-])cc([N+](=O)[O-])c2)o1 [Compound 5j, N-Decyl-5-(3,5-dinitrophenyl)-1,3,4-oxadiazol-2-amine] | 0.25 (≈ 0.0979 µg/mL) | 0.5 (≈ 0.196 µg/mL) | 0.25 (≈ 0.0979 µg/mL) | 0.5 (≈ 0.196 µg/mL) | 0.25 (≈ 0.0979 µg/mL) | 0.5 (≈ 0.196 µg/mL) | 0.25 (≈ 0.0979 µg/mL) | 0.5 (≈ 0.196 µg/mL) | 0.25 (≈ 0.0979 µg/mL) | 0.5 (≈ 0.196 µg/mL) | 0.25 (≈ 0.0979 µg/mL) | 0.5 (≈ 0.196 µg/mL) | 0.25 (≈ 0.0979 µg/mL) | 0.5 (≈ 0.196 µg/mL) |
| CCCCCCCCNc1nnc(-c2cc([N+](=O)[O-])cc([N+](=O)[O-])c2)o1 [Compound 5h, 5-(3,5-Dinitrophenyl)-N-octyl-1,3,4-oxadiazol-2-amine] | 0.125 (≈ 0.0454 µg/mL) | 0.125 (≈ 0.0454 µg/mL) | 0.125 (≈ 0.0454 µg/mL) | 0.125 (≈ 0.0454 µg/mL) | 0.125 (≈ 0.0454 µg/mL) | 0.125 (≈ 0.0454 µg/mL) | 0.125 (≈ 0.0454 µg/mL) | 0.125 (≈ 0.0454 µg/mL) | 0.06 (≈ 0.0218 µg/mL) | 0.125 (≈ 0.0454 µg/mL) | 0.125 (≈ 0.0454 µg/mL) | 0.125 (≈ 0.0454 µg/mL) | 0.06 (≈ 0.0218 µg/mL) | 0.125 (≈ 0.0454 µg/mL) |
| CCCCCCNc1nnc(-c2cc([N+](=O)[O-])cc([N+](=O)[O-])c2)o1 [Compound 5f, 5-(3,5-Dinitrophenyl)-N-hexyl-1,3,4-oxadiazol-2-amine] | ≤ 0.03 | ≤ 0.03 | ≤ 0.03 | ≤ 0.03 | ≤ 0.03 | ≤ 0.03 | ≤ 0.03 | ≤ 0.03 | ≤ 0.03 | ≤ 0.03 | ≤ 0.03 | ≤ 0.03 | ≤ 0.03 | ≤ 0.03 |
| CCCCCCCCCCCCCNc1nnc(-c2cc([N+](=O)[O-])cc([N+](=O)[O-])c2)o1 [Compound 5m, 5-(3,5-Dinitrophenyl)-N-tridecyl-1,3,4-oxadiazol-2-amine] | 0.06 (≈ 0.026 µg/mL) | 0.125 (≈ 0.0542 µg/mL) | 0.125 (≈ 0.0542 µg/mL) | 0.125 (≈ 0.0542 µg/mL) | 0.125 (≈ 0.0542 µg/mL) | 0.125 (≈ 0.0542 µg/mL) | 0.125 (≈ 0.0542 µg/mL) | 0.125 (≈ 0.0542 µg/mL) | 0.06 (≈ 0.026 µg/mL) | 0.125 (≈ 0.0542 µg/mL) | 0.25 (≈ 0.108 µg/mL) | 0.25 (≈ 0.108 µg/mL) | 0.06 (≈ 0.026 µg/mL) | 0.125 (≈ 0.0542 µg/mL) |
| CCCCCCCCNC(=O)NNC(=O)c1cc([N+](=O)[O-])cc([N+](=O)[O-])c1 [Compound 4h, 2-(3,5-Dinitrobenzoyl)-N-octylhydrazine-1-carboxamide] | 1 (≈ 0.381 µg/mL) | 1 (≈ 0.381 µg/mL) | 1 (≈ 0.381 µg/mL) | 1 (≈ 0.381 µg/mL) | 1 (≈ 0.381 µg/mL) | 1 (≈ 0.381 µg/mL) | 1 (≈ 0.381 µg/mL) | 1 (≈ 0.381 µg/mL) | 1 (≈ 0.381 µg/mL) | 1 (≈ 0.381 µg/mL) | 1 (≈ 0.381 µg/mL) | 1 (≈ 0.381 µg/mL) | 1 (≈ 0.381 µg/mL) | 1 (≈ 0.381 µg/mL) |
| CCCCCNc1nnc(-c2cc([N+](=O)[O-])cc([N+](=O)[O-])c2)o1 [Compound 5e, 5-(3,5-Dinitrophenyl)-N-pentyl-1,3,4-oxadiazol-2-amine] | 0.125 (≈ 0.0402 µg/mL) | 0.5 (≈ 0.161 µg/mL) | 0.125 (≈ 0.0402 µg/mL) | 0.25 (≈ 0.0803 µg/mL) | 0.125 (≈ 0.0402 µg/mL) | 0.125 (≈ 0.0402 µg/mL) | 0.125 (≈ 0.0402 µg/mL) | 0.125 (≈ 0.0402 µg/mL) | 0.125 (≈ 0.0402 µg/mL) | 0.125 (≈ 0.0402 µg/mL) | 0.125 (≈ 0.0402 µg/mL) | 0.125 (≈ 0.0402 µg/mL) | 0.125 (≈ 0.0402 µg/mL) | 0.125 (≈ 0.0402 µg/mL) |
| CCCCCCCCCNc1nnc(-c2cc([N+](=O)[O-])cc([N+](=O)[O-])c2)o1 [Compound 5i, 5-(3,5-Dinitrophenyl)-N-nonyl-1,3,4-oxadiazol-2-amine] | 0.125 (≈ 0.0472 µg/mL) | 0.125 (≈ 0.0472 µg/mL) | 0.125 (≈ 0.0472 µg/mL) | 0.125 (≈ 0.0472 µg/mL) | 0.125 (≈ 0.0472 µg/mL) | 0.125 (≈ 0.0472 µg/mL) | 0.06 (≈ 0.0226 µg/mL) | 0.06 (≈ 0.0226 µg/mL) | 0.06 (≈ 0.0226 µg/mL) | 0.06 (≈ 0.0226 µg/mL) | 0.125 (≈ 0.0472 µg/mL) | 0.125 (≈ 0.0472 µg/mL) | 0.06 (≈ 0.0226 µg/mL) | 0.06 (≈ 0.0226 µg/mL) |
| CCCCCCCNC(=O)NNC(=O)c1cc([N+](=O)[O-])cc([N+](=O)[O-])c1 [Compound 4g, 2-(3,5-Dinitrobenzoyl)-N-heptylhydrazine-1-carboxamide] | 1 (≈ 0.367 µg/mL) | 1 (≈ 0.367 µg/mL) | 1 (≈ 0.367 µg/mL) | 2 (≈ 0.735 µg/mL) | 1 (≈ 0.367 µg/mL) | 2 (≈ 0.735 µg/mL) | 1 (≈ 0.367 µg/mL) | 2 (≈ 0.735 µg/mL) | 1 (≈ 0.367 µg/mL) | 1 (≈ 0.367 µg/mL) | 1 (≈ 0.367 µg/mL) | 1 (≈ 0.367 µg/mL) | 1 (≈ 0.367 µg/mL) | 1 (≈ 0.367 µg/mL) |
